Assay results: US20250270180A1, “MEK INHIBITORS AND THERAPEUTIC USES THEREOF” (Immuneering Corporation, priority 2020, published 2025)
In brackets after ≈: the same amount, converted by molar mass. Read-outs that look alike come from different tables or passages of the source.

Experiments:
[1] = Kinetic solubility (PBS pH 7.4; 4 hr); format: physicochemical
Procedure: The plates were shaken for 4 h at room temperature in an Eppendorf Thermomixer. After incubation, the plates were centrifuged for 20 minutes at 4680 rpm. From the supernatant, 150 uL was transferred to a new 96 well plate and 50 uL DMSO was added to ensure continued dissolution. Samples were measured on LC-UV at injection volumes of 1 and 8 uL. Peak areas were determined and compared to peak areas obtained using calibration curves of the test compounds in DMSO.

[2] = Absorption & efflux: Caco-2 permeability; settings: human
PAMPA (pH 7.4) = assay: PAMPA (pH 7.4)
Procedure: Each stock solution was diluted to 50 uM in pH 7.4 Prisma HT buffer (pION) and 200 ul was added to each well of the donor plate in triplicate. The polyvinylidene fluoride (PVDF, 0.45 μm) filter membrane on the acceptor plate was coated with 5 ul gastrointestinal tract lipid formulation (GIT-0, pION) and to each well of the acceptor plate, 200 μl of acceptor sink buffer (pION) was added. The acceptor filter plate was then carefully placed on top of the donor plate to form a sandwich. The sandwich was incubated at 25° C. for 4 h without stirring. UV-vis spectra of the solutions in the blank, reference, acceptor and donor plates were measured using a microplate reader (Tecan Infinite 200PRO M Nano Plus). Permeability values were calculated using the PAMPA explorer software v. 3.8.0.2 (pION).

[3] = Plasma stability, CD-1 mouse; format: in vitro ADME; settings: 2 μM
Colon-26 KRAS-G12D tumor = assay: Colon-26 model (KRAS G12D CRC): efficacy & safety; format: in vivo; settings: Colon-26 KRAS-G12D in Balb/c
Procedure: Female athymic BALB/c nude or BALB/c mice (Beijing Vital River Laboratory Animal Technology Co., Ltd.), approximately 8-10 weeks old were used in these studies. Animals were maintained in individually vented cages on a 12-h light-dark cycle. Food and water were available ad libitum. The Colon-26 tumor cells were maintained in vitro with RPMI1640 medium supplemented with 10% fetal bovine serum at 37° C. in an atmosphere of 5% CO2 in air. The cells in exponential growth phase were harvested and quantitated by cell counter before tumor inoculation. Each mouse was inoculated subcutaneously in the right flank region with Colon-26 tumor cells (5×10^5) in 0.1 mL of PBS. Randomization was started when the mean tumor size reached approximately 125 mm3. A total of 84 tumor-bearing mice were enrolled in the study and allocated into 7 treatment groups (12 mice per group). Also 12 non-tumor-bearing mice were assigned as un-treated group.
Animals were treated with either vehicle (10% DMSO/90% [20% SBE-β-CD in saline], pH 5) or vehicle containing compounds at the indicated doses by gavage (p.o.) twice daily for approximately 28-42 days (BID x 28-42 p.o.), or to ethical endpoints (BWL>20%; Median Tumor Volume (MTV)>2000 mm3; Individual TV>3000 mm3; clinical signs of unwell). Clinical signs of unwell was characterized, but not limited to the following. Severe dehydration, hypothermia, abnormal/labored respiration, lethargy, obvious pain, diarrhea, skin lesions, neurological symptoms, impaired mobility (not able to eat or drink) due to significant ascites and enlarged abdomen, astasia, continuous prone or lateral position, signs of muscular atrophy, paralytic gait, clonic convulsions, tonic convulsions, persistent bleeding from body orifice. Dosing as well as tumor and body weight measurements were conducted in a Laminar Flow Cabinet.
Animals were checked daily for morbidity and mortality. During routine monitoring, the animals were checked for any effects of tumor growth and treatments on behavior such as mobility, food and water consumption, body weight gain/loss (body weights were measured twice per week after randomization), eye/hair matting and any other abnormalities. Mortality and observed clinical signs were recorded for individual animals in detail.
Tumor volumes were measured twice per week after randomization in two dimensions using a caliper, and the volume was expressed in mm3 using the formula: V=(L×W×W)/2, where V is tumor volume, L is tumor length (the longest tumor dimension) and W is tumor width (the longest tumor dimension perpendicular to L). Results were presented as the median tumor volume, expressed in mm3+/−interquartile range, of each group. Tumor Growth Inhibition; TGI %=[1−(Ti/(Ci)]×100; where Ti as the median tumor volume of the treatment group on the measurement day, Ci as the median tumor volume of control group at the measurement day.

CYP450 3A4 = CYP450 3A4 (Homo sapiens, UniProt P08684); assay: CYP450 panel, 3A4; settings: 10 μM; for 3A4*: substrate midazolam; for 3A4^: substrate testosterone
[4] = Plasma stability, beagle dog; format: in vitro ADME; settings: 2 μM
[5] = Microsome stability, beagle dog; format: in vitro ADME; settings: microsomes, 2 μM
CYP450 2D6 = CYP450 2D6 (Homo sapiens, UniProt P10635); assay: CYP450 panel, 2D6; settings: 10 μM; substrate dextromethophan
CYP450 2C19 = CYP450 2C19 (Homo sapiens, UniProt P33261); assay: CYP450 panel, 2C19; settings: 10 μM; substrate mephenytoin
[6] = Microsome stability, human; format: in vitro ADME; settings: microsomes, 2 μM
[7] = eLogD (lipophilicity; pH 7.4); format: physicochemical
Procedure: Test compounds were dissolved in DMSO at a concentration of 10 mM and further diluted with methanol: water 1:1. Samples were analyzed using gradient HPLC with three different isocratic mobile phases of 0.25% octanol in methanol (60, 65 and 70%) and 20 mM MOPS buffer (pH 7.4) with decylamine. If needed, (for low ElogDoct compounds) the isocratic mobile phases were adjusted to e.g. 40, 45 and 50% methanol. Peaks were detected using a diode array at absorbance 220-320 nm.
Capacity factors data (k′ _=(tr−_t0)/t0) obtained at various amounts of methanol were extrapolated to 0% methanol and k′w values are determined using a linear procedure. ElogDoct (7.4) is calculated using a series of reference standards with known Log D values. Each experiment was performed in triplicate.

[8] = Microsome stability, CD-1 mouse; settings: microsomes, 2 μM
Plasma stability, human = format: in vitro ADME; settings: 2 μM
[9] = 10 mM PBS buffer, aqueous buffer, kinetic from dmso stock

CYP450 2D6, sequence (P10635 whole entry): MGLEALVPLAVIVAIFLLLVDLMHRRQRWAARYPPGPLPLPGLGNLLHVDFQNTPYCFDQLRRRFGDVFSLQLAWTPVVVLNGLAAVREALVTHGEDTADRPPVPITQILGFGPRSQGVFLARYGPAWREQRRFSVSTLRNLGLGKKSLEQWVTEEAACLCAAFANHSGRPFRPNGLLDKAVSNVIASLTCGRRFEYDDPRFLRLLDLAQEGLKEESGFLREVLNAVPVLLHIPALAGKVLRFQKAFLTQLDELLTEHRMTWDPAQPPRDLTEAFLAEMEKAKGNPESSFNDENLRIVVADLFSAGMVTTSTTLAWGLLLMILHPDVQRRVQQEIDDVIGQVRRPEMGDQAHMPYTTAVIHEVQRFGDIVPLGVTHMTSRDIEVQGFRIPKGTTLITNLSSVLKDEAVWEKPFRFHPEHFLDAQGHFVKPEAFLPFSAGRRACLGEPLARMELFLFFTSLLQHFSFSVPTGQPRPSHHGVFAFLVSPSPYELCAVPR
CYP450 3A4, sequence (P08684 whole entry): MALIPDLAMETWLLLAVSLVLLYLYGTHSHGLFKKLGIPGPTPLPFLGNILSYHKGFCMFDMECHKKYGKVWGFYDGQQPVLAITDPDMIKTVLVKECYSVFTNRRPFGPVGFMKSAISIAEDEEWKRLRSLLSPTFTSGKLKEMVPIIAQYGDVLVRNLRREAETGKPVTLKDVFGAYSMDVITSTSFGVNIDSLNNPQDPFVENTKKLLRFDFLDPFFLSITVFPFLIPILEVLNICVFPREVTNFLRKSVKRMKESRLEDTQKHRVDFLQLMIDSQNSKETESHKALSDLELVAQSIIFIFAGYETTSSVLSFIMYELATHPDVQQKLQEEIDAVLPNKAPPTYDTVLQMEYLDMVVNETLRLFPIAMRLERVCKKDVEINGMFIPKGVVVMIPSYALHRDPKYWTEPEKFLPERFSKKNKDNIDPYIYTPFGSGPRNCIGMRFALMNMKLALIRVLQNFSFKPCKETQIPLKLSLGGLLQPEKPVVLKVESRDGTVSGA
CYP450 2C19, sequence (P33261 whole entry): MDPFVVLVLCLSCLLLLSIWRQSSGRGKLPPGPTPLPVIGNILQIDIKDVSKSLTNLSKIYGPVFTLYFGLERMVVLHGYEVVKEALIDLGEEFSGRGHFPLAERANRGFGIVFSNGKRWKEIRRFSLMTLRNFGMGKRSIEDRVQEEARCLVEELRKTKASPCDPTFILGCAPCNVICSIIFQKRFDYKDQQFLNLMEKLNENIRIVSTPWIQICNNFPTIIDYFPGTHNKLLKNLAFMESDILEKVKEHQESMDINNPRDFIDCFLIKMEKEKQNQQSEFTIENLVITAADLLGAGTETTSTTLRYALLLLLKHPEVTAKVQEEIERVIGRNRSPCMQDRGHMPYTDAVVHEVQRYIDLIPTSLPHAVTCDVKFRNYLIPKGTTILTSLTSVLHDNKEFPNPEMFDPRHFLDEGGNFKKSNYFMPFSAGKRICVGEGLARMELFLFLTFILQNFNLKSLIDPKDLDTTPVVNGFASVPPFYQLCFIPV

Row | Compound | solubility kinetic at 4 h [1, 9] [µM] | CD-1 Mouse (% Reamining @2 hour) [3] [%] | 3A4* (CYP450 3A4) | 3A4^ (CYP450 3A4) | Beagle Dog (% Reamining @2 hour) [4] [%] | Beagle Dog (% Reamining @1 hour) [5] [%] | 2D6* (CYP450 2D6) | 2C19* (CYP450 2C19) | Human (% Reamining @1 hour) [6] [%] | eLogD (lipophilicity; pH = 7.4) [7] | CD-1 Mouse (% Reamining @1 hour) [8] [%] | Human (% Reamining @2 hour) (Plasma stability, human) [%] | Papp A→B at 2 h, 10 μM [2] [×10⁻⁶ cm/s] | PAMPA (pH = 7.4; Papp 10^−6 cm/s) (PAMPA (pH 7.4)) | TGI (Day 10) (Colon-26 KRAS-G12D tumor; 50 mg/kg BID po) [%] | further results
1 | CNS(=O)(=O)Nc1cccc(Cc2c(CN(C)C)c3ccc(OC(=O)N(C)C)cc3oc2=O)c1F [Compound 9] | > 80 | 90.6 | 16.3 | 26.8 | 96.8 | 76.5 | −3.7 | 8.2 | 51.7 | 3.0 | 54.3 | 95.1 | – | – | – | Papp B→A at 2 h, 10 μM [2]: 21 ×10⁻⁶ cm/s; efflux ratio at 2 h, 10 μM [2]: 1.62; Papp A→B at 2 h, 10 μM ([2]; Caco-2, A-B Permeability Ranking, 10 μM, 2 hrs): > 1 ×10⁻⁶ cm/s; Papp A→B at 2 h, 10 μM ([2]; Caco-2, Mean Papp A-B (10^−6 cm/s), 10 μM, 2 hrs): 13 ×10⁻⁶ cm/s; Papp at 4 h, 50 uM (PAMPA (pH 7.4); PAMPA): 37 ×10⁻⁶ cm/s; BWL (Day 14) (Colon-26 KRAS-G12D tumor; 150 mg/kg BID po): 0%; BWL (Day 17) (Colon-26 KRAS-G12D tumor; 150 mg/kg BID po): 0%; TGI (Day 10) (Colon-26 KRAS-G12D tumor; 150 mg/kg BID po): 93.9%
2 | Cn1cnc2c(F)c(Nc3ccc(Br)cc3Cl)c(C(=O)NOCCO)cc21 [Reference 1, Selumetinib, reference compound] | – | 104.8 | 25.9 | 21.4 | 100.4 | 97.5 | 5.0 | 13.9 | 75.8 | 3.6 | 13.9 | 98.1 | > 1 | 29 10^−6 cm/s | 60.0 | solubility kinetic at 4 h [1]: 36 µM (≈ 16.5 µg/mL); BWL (Day 14) (Colon-26 KRAS-G12D tumor; 50 mg/kg BID po): 0%; BWL (Day 17) (Colon-26 KRAS-G12D tumor; 50 mg/kg BID po): −2%
3 | CNS(=O)(=O)Nc1nccc(Cc2c(C)c3ccc(Oc4ncccn4)cc3oc2=O)c1F [Reference 2, reference compound] | 36 (≈ 17 µg/mL) | 92.9 | 16.6 | 15.7 | 99.8 | 111.6 | 3.4 | −0.9 | 107.1 | 3.6 | 96.0 | 91.1 | > 1 | 29 10^−6 cm/s | 61.6 | –
